Earlier results on one compound are cited in paper doi:10.1101/2023.04.03.535218, “Distributable, Metabolic PET Reporting of Tuberculosis” (bioRxiv, 2023).

This data set deals with T1, OtsA^Sf (Escherichia coli, UniProt P31677).
T1 construct: C-terminally tagged, purified on Ni-NTA
T1 sequence (P31677 2-474): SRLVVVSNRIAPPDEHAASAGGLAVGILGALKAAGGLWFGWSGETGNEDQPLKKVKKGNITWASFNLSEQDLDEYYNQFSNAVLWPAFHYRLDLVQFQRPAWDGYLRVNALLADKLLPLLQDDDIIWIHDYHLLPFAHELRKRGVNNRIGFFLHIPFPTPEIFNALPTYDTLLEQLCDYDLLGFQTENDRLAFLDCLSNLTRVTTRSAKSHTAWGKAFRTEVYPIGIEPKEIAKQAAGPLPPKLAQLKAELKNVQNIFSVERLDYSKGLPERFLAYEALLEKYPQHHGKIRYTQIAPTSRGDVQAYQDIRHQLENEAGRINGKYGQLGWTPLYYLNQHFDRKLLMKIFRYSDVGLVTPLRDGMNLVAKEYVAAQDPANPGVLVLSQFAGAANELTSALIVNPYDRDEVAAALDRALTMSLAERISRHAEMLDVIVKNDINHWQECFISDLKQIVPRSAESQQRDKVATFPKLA
As to the kind of experiment: NADH-linked continuous assay (Methods). The data set is classed as biochemical. Conditions: co-substrate UDP-Glc; table note a (taken from Reference 41) is also set on this row, text presents it as own.

On to `O=P(O)(O)OC[C@H]1OC(O)[C@H](O)[C@@H](O)[C@@H]1O` (stereo partly shown) [G6P], for which the Michaelis constant (Km) (usually the substrate concentration at which the rate is half of its maximum) was 4.9 ± 0.5 mM.
